Here are results for 13 compounds from article PMC9032718, “Eltrombopag as an Allosteric Inhibitor of the METTL3-14 Complex Affecting the m^6A Methylation of RNA in Acute Myeloid Leukemia Cells” (Pharmaceuticals, 2022).

One series has as its target T1, DOT1L (Homo sapiens, UniProt Q8TEK3).
T1 construct: purchased Reaction Biology (Malvern, PA, USA), contract assay
The experiment in a line: Methyltransferase selectivity panel (MT HotSpot radioisotope assay), DOT1L. Type of series: biochemical. The procedure:
(§1) The selectivity profile of eltrombopag was investigated by testing the level of inhibition in a methyltransferase panel. The inhibition of 7 […] methyltransferase was tested at Reaction Biology (Malvern, PA, USA) using a gold standard radioisotope-based MT assay (MT HotSpot^TM) with 10 μM of eltrombopag in duplicate.

A further series addresses T2, METTL3-14 complex (Homo sapiens, UniProt Q86U44).
T2 construct: genes encoding the full-length and MTase domain of human METTL3; METTL3-14 FL: full length of METTL3-14; 10x His (thrombin-cleavable) (cleaved yes); made in house; host or cells: Trichoplusia ni (Hi5) cells co-infected with two baculoviruses (virus made in Sf9)
The experiment in a line: METTL3-14 enzyme-based bioluminescence assay (screening assay). Type of series: biochemical. The note with it: for inhibition at 60 µM: read-out: % inhibition of METTL3-14 at 60 μM, 60 μM compound; for Km: Michaelis-Menten, Figure S1, read-out: Km of METTL3-14 substrates. The procedure:
An enzymatic bioluminescence assay was established to identify the METTL3-14 inhibitor through screening. […] METTL3-14 activity was assessed by measuring the luminescence using a Victor multilabel reader (PerkinElmer, Waltham, MA, USA). The IC50 values were calculated by a nonlinear regression analysis using OriginPro 9.1 software (OriginLab).
To confirm the mechanism of action of eltrombopag in the METTL3-14 complex, 30 nM METTL3-14 and serially diluted eltrombopag were reacted with various concentrations of SAM or RNA substrate and saturating concentrations of the other substrate (3 μM SAM or 2 μM RNA substrate) for 20 min. To evaluate the inhibitory activity in a single form of METTL3 and METTL14, 1 μM of METTL3 and 300 nM of METTL14 were incubated with 1 μM of SAM, 500 nM of RNA substrates, and serially diluted eltrombopag for 5 h. To measure the inhibitory activity in the truncated form of the METTL3-14 complex, 1 μM of the truncated METTL3-14 complex was reacted with 1 μM of SAM, 500 nM of RNA substrates, and serially diluted eltrombopag for 5 h.

In series [1] the test system is MOLM-13 cells. Nature of the series: Combinatorial analysis of AML drugs with eltrombopag (EZ-cytox, Synergyfinder). The note with it: Homo sapiens, MOLM-13, 72 h, eltrombopag 0 nM; for inhibition at 0.00167 µM: AML drug alone 1.67 nM; for inhibition at 0.005 µM: AML drug alone 5 nM; for inhibition at 0.015 µM: AML drug alone 15 nM; for inhibition at 0.045 µM: AML drug alone 45 nM. It counts as cell-based. On the procedure:
The MOLM-13 cells were seeded in white 96-well clear bottomed plates with 50 μL of medium (5000 cells/well). The plated cells were treated with serially diluted eltrombopag and current AML drugs, including venetoclax, cytarabine, gilteritinib, and sorafenib, to a final volume of 100 μL and incubated for 72 h at 37 °C. After incubation, 10 μL of EZ-cytox kit reagent from the EZ-cytox cell viability assay kit (DaeiLab) was added to each well and then incubated for 3 h at 37 °C. The absorbance of metabolically active cells was measured at a wavelength of 450 nm using a Victor multilabel reader (PerkinElmer). The synergy scores of each combination were quantified by the HAS model, ZIP model, Loewe additivity model, and Bliss independence models using Synergyfinder software. Positive or negative synergy scores obtained through these models represent synergy and antagonism, respectively.

Series [2] deals with MOLM-13 cells. The experiment in a line: Anti-proliferative assay (EZ-cytox), MOLM-13. It counts as cell-based. The settings on record: Homo sapiens. On the procedure:
The MOLM-13, MOLM-14, HL60, MV4-11, and THP-1 cells were seeded in white 96-well clear bottomed plates with 100 μL of medium (5000 cells/well). The plated cells were treated with serially diluted compounds and incubated for 72 h at 37 °C. After incubation, 10 μL of EZ-cytox kit reagent from the EZ-cytox cell viability assay kit (DaeiLab, Seoul, Korea) was added to each well and then incubated for 3 h at 37 °C. The absorbance of metabolically active cells was measured at a wavelength of 450 nm using a Victor multilabel reader (PerkinElmer). The GI50 values were calculated by nonlinear regression analysis using OriginPro 9.1 software (OriginLab).

The target in a further series is T3, MLL4 complex (Homo sapiens, UniProt Q9UMN6).
T3 construct: purchased Reaction Biology (Malvern, PA, USA), contract assay
Nature of the series: Methyltransferase selectivity panel (MT HotSpot radioisotope assay), MLL4 complex. Type of series: biochemical. The settings on record: positive control. The procedure:
as §1

The next series concerns the target T4, PRDM9 (Homo sapiens, UniProt Q9NQV7).
T4 construct: purchased Reaction Biology (Malvern, PA, USA), contract assay
The experiment in a line: Methyltransferase selectivity panel (MT HotSpot radioisotope assay), PRDM9. Type of series: biochemical. The note with it: positive control. On the procedure: as §1

A further series deals with T5, SETD2 (Homo sapiens, UniProt Q9BYW2).
T5 construct: purchased Reaction Biology (Malvern, PA, USA), contract assay
Nature of the series: Methyltransferase selectivity panel (MT HotSpot radioisotope assay), SETD2. Type of series: biochemical. The note with it: positive control. The procedure: as §1

In another series the target is T6, SMYD3 (Homo sapiens, UniProt Q9H7B4).
T6 construct: purchased Reaction Biology (Malvern, PA, USA), contract assay
T6 sequence (Q9H7B4 1-428): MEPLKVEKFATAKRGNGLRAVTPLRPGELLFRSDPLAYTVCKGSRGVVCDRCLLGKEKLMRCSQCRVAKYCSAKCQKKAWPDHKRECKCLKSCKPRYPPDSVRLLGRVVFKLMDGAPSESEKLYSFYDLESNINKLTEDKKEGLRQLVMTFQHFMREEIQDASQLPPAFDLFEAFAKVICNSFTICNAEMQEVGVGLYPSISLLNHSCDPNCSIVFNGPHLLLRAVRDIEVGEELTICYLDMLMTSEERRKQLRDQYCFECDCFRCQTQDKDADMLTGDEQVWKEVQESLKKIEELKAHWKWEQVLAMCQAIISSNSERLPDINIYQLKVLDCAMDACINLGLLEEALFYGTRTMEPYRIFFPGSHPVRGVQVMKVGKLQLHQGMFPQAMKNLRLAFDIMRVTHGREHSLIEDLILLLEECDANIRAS
Nature of the series: Methyltransferase selectivity panel (MT HotSpot radioisotope assay), SMYD3. It counts as biochemical. On the procedure:
as §1

The subject of series [3] is m^6A/A on poly-A+-enriched mRNA of MOLM-13 cells. Further details: method as in PMID 34237194. The note with it: cited from earlier work.
Series [4] deals with m^6A methylation of MOLM-13 transcriptome. Further details: method as in PMID 33902106. The note with it: cited from earlier work.

T2 sequence (Q86U44 whole entry, the tested form may be a part): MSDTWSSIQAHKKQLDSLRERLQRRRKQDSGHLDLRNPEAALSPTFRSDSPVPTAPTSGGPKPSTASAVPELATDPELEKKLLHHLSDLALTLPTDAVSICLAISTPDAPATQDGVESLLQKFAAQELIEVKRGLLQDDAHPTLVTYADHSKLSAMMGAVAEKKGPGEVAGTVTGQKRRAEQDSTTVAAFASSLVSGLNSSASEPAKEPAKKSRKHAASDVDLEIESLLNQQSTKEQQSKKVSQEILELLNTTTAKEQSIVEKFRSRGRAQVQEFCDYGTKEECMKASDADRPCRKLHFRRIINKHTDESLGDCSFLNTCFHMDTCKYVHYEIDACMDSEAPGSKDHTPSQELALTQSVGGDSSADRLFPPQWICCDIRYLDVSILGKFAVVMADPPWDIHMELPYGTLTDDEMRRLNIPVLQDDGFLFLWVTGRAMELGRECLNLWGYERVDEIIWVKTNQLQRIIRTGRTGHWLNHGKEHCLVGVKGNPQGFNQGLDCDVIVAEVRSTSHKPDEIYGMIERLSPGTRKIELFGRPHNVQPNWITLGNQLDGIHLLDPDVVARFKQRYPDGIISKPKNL
T2 sequence (Q9HCE5 whole entry partner, the tested form may be a part): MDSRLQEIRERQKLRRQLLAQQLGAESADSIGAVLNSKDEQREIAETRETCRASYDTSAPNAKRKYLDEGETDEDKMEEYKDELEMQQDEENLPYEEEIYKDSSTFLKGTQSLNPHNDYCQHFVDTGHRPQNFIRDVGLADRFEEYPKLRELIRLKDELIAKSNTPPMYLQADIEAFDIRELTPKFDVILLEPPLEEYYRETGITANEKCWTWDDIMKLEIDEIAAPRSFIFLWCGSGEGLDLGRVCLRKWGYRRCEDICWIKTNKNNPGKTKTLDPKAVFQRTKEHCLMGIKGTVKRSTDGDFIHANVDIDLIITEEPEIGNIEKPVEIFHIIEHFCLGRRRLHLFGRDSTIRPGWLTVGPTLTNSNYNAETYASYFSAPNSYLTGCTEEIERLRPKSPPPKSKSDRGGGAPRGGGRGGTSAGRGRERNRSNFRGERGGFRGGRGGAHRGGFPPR
T4 sequence (Q9NQV7 whole entry): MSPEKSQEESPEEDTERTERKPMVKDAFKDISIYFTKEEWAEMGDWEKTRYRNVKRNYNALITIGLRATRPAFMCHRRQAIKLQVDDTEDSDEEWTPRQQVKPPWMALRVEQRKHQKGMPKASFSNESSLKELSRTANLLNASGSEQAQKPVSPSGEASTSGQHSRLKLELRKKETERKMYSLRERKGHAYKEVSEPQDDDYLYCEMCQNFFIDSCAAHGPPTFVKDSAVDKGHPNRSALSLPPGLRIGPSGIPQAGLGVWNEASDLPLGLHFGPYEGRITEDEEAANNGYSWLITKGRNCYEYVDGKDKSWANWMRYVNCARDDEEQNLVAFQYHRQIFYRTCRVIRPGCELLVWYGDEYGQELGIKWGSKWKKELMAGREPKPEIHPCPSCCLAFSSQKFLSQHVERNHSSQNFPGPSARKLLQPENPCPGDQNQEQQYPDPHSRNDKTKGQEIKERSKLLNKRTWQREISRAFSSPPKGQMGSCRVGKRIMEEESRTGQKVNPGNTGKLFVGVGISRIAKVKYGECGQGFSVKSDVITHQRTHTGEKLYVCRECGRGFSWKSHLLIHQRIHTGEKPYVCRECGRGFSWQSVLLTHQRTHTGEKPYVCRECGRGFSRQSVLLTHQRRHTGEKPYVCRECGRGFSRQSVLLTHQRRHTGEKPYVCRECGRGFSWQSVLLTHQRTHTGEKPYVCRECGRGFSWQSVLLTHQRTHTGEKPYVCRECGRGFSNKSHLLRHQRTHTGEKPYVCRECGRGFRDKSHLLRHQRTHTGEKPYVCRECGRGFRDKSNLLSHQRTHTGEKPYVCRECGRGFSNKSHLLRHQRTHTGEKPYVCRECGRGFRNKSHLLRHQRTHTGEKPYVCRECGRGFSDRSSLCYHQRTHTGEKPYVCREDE
T5 sequence (Q9BYW2 whole entry): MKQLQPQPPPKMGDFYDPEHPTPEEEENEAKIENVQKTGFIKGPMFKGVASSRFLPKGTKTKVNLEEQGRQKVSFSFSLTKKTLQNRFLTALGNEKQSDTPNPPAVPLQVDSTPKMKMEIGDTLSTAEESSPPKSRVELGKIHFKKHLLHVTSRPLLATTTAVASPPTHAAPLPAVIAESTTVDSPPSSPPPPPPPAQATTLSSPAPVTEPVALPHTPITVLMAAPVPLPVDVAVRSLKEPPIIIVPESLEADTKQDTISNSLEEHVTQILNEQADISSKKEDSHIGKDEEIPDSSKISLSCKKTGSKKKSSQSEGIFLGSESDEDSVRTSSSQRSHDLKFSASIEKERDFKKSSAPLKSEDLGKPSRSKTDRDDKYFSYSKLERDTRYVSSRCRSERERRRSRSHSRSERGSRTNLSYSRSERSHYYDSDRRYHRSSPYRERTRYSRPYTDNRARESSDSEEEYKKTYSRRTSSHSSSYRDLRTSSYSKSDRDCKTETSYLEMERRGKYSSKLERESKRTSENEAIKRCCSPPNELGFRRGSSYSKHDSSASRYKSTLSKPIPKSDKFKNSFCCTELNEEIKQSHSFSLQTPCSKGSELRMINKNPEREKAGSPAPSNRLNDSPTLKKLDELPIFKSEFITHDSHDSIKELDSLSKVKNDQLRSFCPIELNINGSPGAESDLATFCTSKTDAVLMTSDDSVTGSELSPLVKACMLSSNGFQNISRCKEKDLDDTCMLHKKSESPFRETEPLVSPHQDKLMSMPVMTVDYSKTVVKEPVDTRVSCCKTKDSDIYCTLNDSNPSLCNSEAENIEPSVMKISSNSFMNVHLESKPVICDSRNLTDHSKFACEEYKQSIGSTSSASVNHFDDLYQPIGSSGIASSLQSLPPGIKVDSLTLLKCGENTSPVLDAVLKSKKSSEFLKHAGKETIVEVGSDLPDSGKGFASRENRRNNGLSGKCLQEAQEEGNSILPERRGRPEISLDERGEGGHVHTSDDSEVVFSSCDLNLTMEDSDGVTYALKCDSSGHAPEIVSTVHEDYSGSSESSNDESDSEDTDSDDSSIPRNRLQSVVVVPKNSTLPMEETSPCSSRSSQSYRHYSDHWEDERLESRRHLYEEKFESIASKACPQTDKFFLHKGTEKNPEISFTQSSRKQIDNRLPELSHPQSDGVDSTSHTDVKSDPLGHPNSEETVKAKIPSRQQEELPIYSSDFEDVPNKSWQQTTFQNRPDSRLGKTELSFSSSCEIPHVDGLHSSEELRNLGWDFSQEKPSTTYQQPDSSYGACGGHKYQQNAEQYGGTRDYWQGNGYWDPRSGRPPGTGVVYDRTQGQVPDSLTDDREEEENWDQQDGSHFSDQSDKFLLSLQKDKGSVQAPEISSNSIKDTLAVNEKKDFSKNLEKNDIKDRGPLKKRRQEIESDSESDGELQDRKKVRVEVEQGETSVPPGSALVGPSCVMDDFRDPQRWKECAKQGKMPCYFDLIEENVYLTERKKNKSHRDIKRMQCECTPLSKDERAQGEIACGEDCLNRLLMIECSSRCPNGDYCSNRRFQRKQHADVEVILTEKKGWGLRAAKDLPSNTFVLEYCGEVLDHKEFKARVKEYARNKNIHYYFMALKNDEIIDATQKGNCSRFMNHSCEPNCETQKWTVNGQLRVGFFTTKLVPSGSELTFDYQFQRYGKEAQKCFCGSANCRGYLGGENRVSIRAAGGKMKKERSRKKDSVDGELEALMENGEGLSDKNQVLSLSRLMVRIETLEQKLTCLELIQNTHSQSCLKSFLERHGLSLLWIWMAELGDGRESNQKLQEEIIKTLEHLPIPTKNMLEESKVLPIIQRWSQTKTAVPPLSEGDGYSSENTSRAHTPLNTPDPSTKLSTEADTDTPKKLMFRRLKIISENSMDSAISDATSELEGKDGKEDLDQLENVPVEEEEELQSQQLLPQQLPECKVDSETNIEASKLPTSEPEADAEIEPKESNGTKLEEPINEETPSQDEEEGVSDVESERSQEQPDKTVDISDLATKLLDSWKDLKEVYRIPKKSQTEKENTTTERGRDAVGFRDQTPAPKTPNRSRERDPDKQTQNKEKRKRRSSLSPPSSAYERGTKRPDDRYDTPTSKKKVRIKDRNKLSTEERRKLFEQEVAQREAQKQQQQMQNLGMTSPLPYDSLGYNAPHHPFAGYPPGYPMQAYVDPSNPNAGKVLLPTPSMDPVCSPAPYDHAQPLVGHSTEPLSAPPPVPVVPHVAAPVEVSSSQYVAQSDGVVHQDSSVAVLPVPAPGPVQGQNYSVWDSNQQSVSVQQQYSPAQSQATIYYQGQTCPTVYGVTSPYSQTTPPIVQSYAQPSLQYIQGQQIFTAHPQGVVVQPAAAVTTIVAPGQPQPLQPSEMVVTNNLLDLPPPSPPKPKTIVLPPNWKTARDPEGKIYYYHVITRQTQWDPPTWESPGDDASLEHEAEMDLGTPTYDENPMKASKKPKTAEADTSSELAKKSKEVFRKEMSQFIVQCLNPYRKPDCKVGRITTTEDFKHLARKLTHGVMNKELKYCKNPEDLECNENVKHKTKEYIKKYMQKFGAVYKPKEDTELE

For the compound `CN1C(=O)[C@@]23C[C@]4([C@]56C[C@@]78SS[C@@](CO)(C(=O)N7[C@H]5Nc5ccccc56)N(C)C8=O)c5ccccc5N[C@@H]4N2C(=O)[C@]1(CO)SS3` [Chaetocin], the IC50 – broadly, the concentration needed to halve the response being measured – against DOT1L came to 0.217 µM. With `CC1=NN(c2ccc(C)c(C)c2)C(=O)/C1=N\Nc1cccc(-c2ccccc2)c1O` [Compound 14a], the inhibition – broadly, the share of the control response that was lost under treatment – at 60 µM at METTL3-14 complex was 23.3%. On the same count and under the same terms, with `COC(=O)c1cccc(-c2cccc(N/N=C3\C(=O)N(c4ccc(C)c(C)c4)N=C3C)c2O)c1` [Compound 14b] the figure was 23.7%. With `CC1=NN(c2ccc(C)c(C)c2)C(=O)/C1=N\Nc1cccc(-c2cccc(C(=O)O)c2)c1` [Compound 14d], the IC50 on METTL3-14 complex (full length METTL3-14 30 nM, SAM 300 nM, RNA substrate 300 nM, 1 h, read-out: IC50, METTL3-14 inhibition, bioluminescence enzyme based assay) stood at 15.3 µM. The “fold decrease of METTL3-14 inhibitory activity versus eltrombopag” value at METTL3-14 complex (relative to eltrombopag) is given as 4 fold. `Nc1ccn([C@@H]2O[C@H](CO)[C@@H](O)[C@@H]2O)c(=O)n1` [Cytarabine]: in the series on MOLM-13 cells [1], the inhibition at 0.00167 µM was 2.2 ± 3.1%, the inhibition at 0.005 µM turned out to be 20.7 ± 4.33%, the inhibition at 0.015 µM was 48.3 ± 1.93% and the inhibition at 0.045 µM is 75.7 ± 1.35%. For `CCc1nc(C(N)=O)c(Nc2ccc(N3CCC(N4CCN(C)CC4)CC3)c(OC)c2)nc1NC1CCOCC1` [Gilteritinib], the GI50 (as a rule, the concentration at which growth is held to half of that of the control) in the series on MOLM-13 cells [2] (MOLM-13, 72 h, positive control, Figure S3) worked out at 0.0166 µM. Consider `Nc1ncnc2c1ncn2[C@@H]1O[C@H](CSCC[C@H](N)C(=O)O)[C@@H](O)[C@H]1O` [SAH, S-(5′-adenosyl)-L-homocysteine], for which the IC50 stood at 5.09 µM against MLL4 complex, 4.16 µM at PRDM9, 10.8 µM against SETD2 and 35.3 µM against SMYD3. For the compound `C[S+](CC[C@H](N)C(=O)O)C[C@H]1O[C@@H](n2cnc3c(N)ncnc32)[C@H](O)[C@@H]1O` (stereo partly drawn) [SAM, S-(5′-adenosyl)-L-methionine], the Km (in general, the concentration of substrate that gives half-maximal velocity) on METTL3-14 complex stood at 0.0986 µM. In turn, `Nc1ncnc2c1ncn2[C@@H]1O[C@H](C[C@@H](N)CC[C@H](N)C(=O)O)[C@@H](O)[C@H]1O` [Sinefungin, sinefungin] had a GI50 with MOLM-13 cells [2] (MOLM-13, 72 h) of 24.8 ± 1.2 µM. For `CC1(C)CCN(Cc2ccc(C(=O)NC[C@]3(O)CCCN(c4cc(NCc5ccccc5)ncn4)C3)c(O)c2)CC1` [UZH1a], the “maximum m^6A inhibition, previously reported” value in [3] is given as 60–70%. In the case of `CC1(C)CCC(CN2CCN(c3ccc(C(=O)NS(=O)(=O)c4ccc(NCC5CCOCC5)c([N+](=O)[O-])c4)c(Oc4cnc5[nH]ccc5c4)c3)CC2)=C(c2ccc(Cl)cc2)C1` [Venetoclax], in the series on MOLM-13 cells [1], the inhibition at 0.00167 µM amounted to 12.8 ± 3.69%, the inhibition at 0.005 µM worked out at 29.2 ± 0.39%, the inhibition at 0.015 µM was found to be 54.5 ± 3.76% and the inhibition at 0.045 µM was 77 ± 0.92%. For “RNA: RNA substrate 5′-ACGAGUCCUGGACUGAAACGGACUUGU-3′ (RNA, backbone not given here)”, the Km with METTL3-14 complex worked out at 0.0705 µM.

As to STM2457, in [4], the “share of hypermethylation, previously reported” value was “about 30%”.
